# Data reported in PubChem BioAssay AID1918994 (Molecular Pharmacology Branch, DTP, NCI, 2023).
# Several values for one entry are separate records, joined by “and”; a condition that tells them apart may be missing. Equal entries are not always repeated.
# Tested on: 292921-168-R-J2-PDC complex spheroid growth
# Experiment: Anticancer human tumor 292921-168-R-J2-PDC patient-derived pancreatic carcinoma cell line growth inhibition [AhR]
# Details: for viability, T/C: stronger effect = lower value
# Outline: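 Agents were dosed in half-log steps down from roughly clinical Cmax, or from 10 microM where Cmax was unknown, alone and with AhR antagonists. Read-out: percent test/control growth of tumor spheroids containing HUVEC and MSC stromal cells.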
# [1] = curve of first compound, second compound 0.1 µM
# [2] = curve of first compound, second compound 0.316 µM
# [3] = curve of first compound, second compound 1 µM
# [4] = curve of first compound, second compound 3.16 µM
# [5] = curve of first compound, second compound 10 µM
# [6] = second compound 0.1 µM, first compound 0.00316 µM
# [7] = second compound 0.1 µM, first compound 0.01 µM
# [8] = second compound 0.1 µM, first compound 0.0316 µM
# [9] = second compound 0.1 µM, first compound 0.1 µM
# [10] = second compound 0.1 µM, first compound 0.316 µM
# [11] = second compound 0.1 µM, first compound 1 µM
# [12] = second compound 0.316 µM, first compound 0.00316 µM
# [13] = second compound 0.316 µM, first compound 0.01 µM
# [14] = second compound 0.316 µM, first compound 0.0316 µM
# [15] = second compound 0.316 µM, first compound 0.1 µM
# [16] = second compound 0.316 µM, first compound 0.316 µM
# [17] = second compound 0.316 µM, first compound 1 µM
# [18] = second compound 1 µM, first compound 0.00316 µM
# [19] = second compound 1 µM, first compound 0.01 µM
# [20] = second compound 1 µM, first compound 0.0316 µM
# [21] = second compound 1 µM, first compound 0.1 µM
# [22] = second compound 1 µM, first compound 0.316 µM
# [23] = second compound 1 µM, first compound 1 µM
# [24] = second compound 3.16 µM, first compound 0.00316 µM
# [25] = second compound 3.16 µM, first compound 0.01 µM
# [26] = second compound 3.16 µM, first compound 0.0316 µM
# [27] = second compound 3.16 µM, first compound 0.1 µM
# [28] = second compound 3.16 µM, first compound 0.316 µM
# [29] = second compound 3.16 µM, first compound 1 µM
# [30] = second compound 10 µM, first compound 0.00316 µM
# [31] = second compound 10 µM, first compound 0.01 µM
# [32] = second compound 10 µM, first compound 0.0316 µM
# [33] = second compound 10 µM, first compound 0.1 µM
# [34] = second compound 10 µM, first compound 0.316 µM
# [35] = second compound 10 µM, first compound 1 µM
# 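Note: spheroids exposed to compounds for seven days after three days of growth.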
structure (smiles),measurement,setting,value
CCc1c2c(nc3ccc(O)cc13)-c1cc3c(c(=O)n1C2)COC(=O)[C@]3(O)CC + CC(CO)NC(=O)c1cc(-c2ccc(Cl)cc2)nn(-c2cnn(C)c2)c1=O,IC50,[1],1.79 nM
same,IC50,[2],< 0.949 nM
same,IC50,[3],1.02 nM
same,IC50,[4],< 0.949 nM
same,IC50,[5],< 0.949 nM
same,"viability, T/C","second compound 0.1 µM, first compound 0.000949 µM",55.6%
same,"viability, T/C","second compound 0.1 µM, first compound 0.003 µM",46.4%
same,"viability, T/C","second compound 0.1 µM, first compound 0.00949 µM",20.9%
same,"viability, T/C","second compound 0.1 µM, first compound 0.03 µM",12.4%
same,"viability, T/C","second compound 0.1 µM, first compound 0.0949 µM",5.44%
same,"viability, T/C","second compound 0.1 µM, first compound 0.3 µM",3.22%
same,"viability, T/C","second compound 0.316 µM, first compound 0.000949 µM",49.2%
same,"viability, T/C","second compound 0.316 µM, first compound 0.003 µM",42%
same,"viability, T/C","second compound 0.316 µM, first compound 0.00949 µM",22.7%
same,"viability, T/C","second compound 0.316 µM, first compound 0.03 µM",12%
same,"viability, T/C","second compound 0.316 µM, first compound 0.0949 µM",6.1%
same,"viability, T/C","second compound 0.316 µM, first compound 0.3 µM",3.45%
same,"viability, T/C","second compound 1 µM, first compound 0.000949 µM",49.8%
same,"viability, T/C","second compound 1 µM, first compound 0.003 µM",43.3%
same,"viability, T/C","second compound 1 µM, first compound 0.00949 µM",21.9%
same,"viability, T/C","second compound 1 µM, first compound 0.03 µM",12.9%
same,"viability, T/C","second compound 1 µM, first compound 0.0949 µM",7.22%
same,"viability, T/C","second compound 1 µM, first compound 0.3 µM",3.97%
same,"viability, T/C","second compound 3.16 µM, first compound 0.000949 µM",44.4%
same,"viability, T/C","second compound 3.16 µM, first compound 0.003 µM",32.9%
same,"viability, T/C","second compound 3.16 µM, first compound 0.00949 µM",21.2%
same,"viability, T/C","second compound 3.16 µM, first compound 0.03 µM",11.3%
same,"viability, T/C","second compound 3.16 µM, first compound 0.0949 µM",6.34%
same,"viability, T/C","second compound 3.16 µM, first compound 0.3 µM",3.5%
same,"viability, T/C","second compound 10 µM, first compound 0.000949 µM",38.2%
same,"viability, T/C","second compound 10 µM, first compound 0.003 µM",31.2%
same,"viability, T/C","second compound 10 µM, first compound 0.00949 µM",20.5%
same,"viability, T/C","second compound 10 µM, first compound 0.03 µM",12%
same,"viability, T/C","second compound 10 µM, first compound 0.0949 µM",6.27%
same,"viability, T/C","second compound 10 µM, first compound 0.3 µM",4.4%
CC1COCCN1c1cc(C2(S(C)(=N)=O)CC2)nc(-c2ccnc3[nH]ccc23)n1 (configuration not stated),"viability, T/C",compound 0.0316 µM,98% and 110% (2×)
same,"viability, T/C",compound 0.1 µM,93.9% and 96.9% and 110%
same,"viability, T/C",compound 0.316 µM,89.8% and 90.3% and 106%
same,"viability, T/C",compound 1 µM,89.2% and 77.6% and 79.8%
same,"viability, T/C",compound 3.16 µM,58% and 44.7% and 50.7%
same,"viability, T/C",compound 10 µM,27.7% (2×) and 21.3%
same,IC50,curve of compound,4300 nM and 2860 nM and 3080 nM
Nc1ncn(C2CC(O)C(CO)O2)c(=O)n1 (configuration not stated) + CC(CO)NC(=O)c1cc(-c2ccc(Cl)cc2)nn(-c2cnn(C)c2)c1=O,IC50,[1],> 1000 nM
same,IC50,[2],> 1000 nM
same,IC50,[3],> 1000 nM
same,IC50,[4],> 1000 nM
same,IC50,[5],> 1000 nM
same,"viability, T/C",[6],102%
same,"viability, T/C",[7],93.3%
same,"viability, T/C",[8],87.1%
same,"viability, T/C",[9],88.8%
same,"viability, T/C",[10],80.9%
same,"viability, T/C",[11],73.7%
same,"viability, T/C",[12],101%
same,"viability, T/C",[13],96.3%
same,"viability, T/C",[14],105%
same,"viability, T/C",[15],90.8%
same,"viability, T/C",[16],85.8%
same,"viability, T/C",[17],77.8%
same,"viability, T/C",[18],97.5%
same,"viability, T/C",[19],104%
same,"viability, T/C",[20],103%
same,"viability, T/C",[21],94.5%
same,"viability, T/C",[22],86.2%
same,"viability, T/C",[23],78.8%
same,"viability, T/C",[24],94.7%
same,"viability, T/C",[25],91%
same,"viability, T/C",[26],92.4%
same,"viability, T/C",[27],76.5%
same,"viability, T/C",[28],81.4%
same,"viability, T/C",[29],69.5%
same,"viability, T/C",[30],70.3%
same,"viability, T/C",[31],72.8%
same,"viability, T/C",[32],71%
same,"viability, T/C",[33],73%
same,"viability, T/C",[34],63%
same,"viability, T/C",[35],62.5%
CC1COCCN1c1cc(-c2ccnn2C)c2ccnc(-c3ccn[nH]3)c2n1 (configuration not stated) + CC(CO)NC(=O)c1cc(-c2ccc(Cl)cc2)nn(-c2cnn(C)c2)c1=O,IC50,[1],43.3 nM
same,IC50,[2],46.4 nM
same,IC50,[3],33 nM
same,IC50,[4],27.9 nM
same,IC50,[5],10.3 nM
same,"viability, T/C",[6],93.5%
same,"viability, T/C",[7],91%
same,"viability, T/C",[8],56.1%
same,"viability, T/C",[9],31.4%
same,"viability, T/C",[10],22.7%
same,"viability, T/C",[11],19.7%
same,"viability, T/C",[12],96.8%
same,"viability, T/C",[13],84.1%
same,"viability, T/C",[14],56.6%
same,"viability, T/C",[15],35.3%
same,"viability, T/C",[16],22%
same,"viability, T/C",[17],17.8%
same,"viability, T/C",[18],100%
same,"viability, T/C",[19],90.8%
same,"viability, T/C",[20],49%
same,"viability, T/C",[21],29.1%
same,"viability, T/C",[22],21.5%
same,"viability, T/C",[23],17.3%
same,"viability, T/C",[24],86.6%
same,"viability, T/C",[25],75.2%
same,"viability, T/C",[26],46.9%
same,"viability, T/C",[27],24.9%
same,"viability, T/C",[28],17.7%
same,"viability, T/C",[29],17.1%
same,"viability, T/C",[30],62.8%
same,"viability, T/C",[31],51%
same,"viability, T/C",[32],26.8%
same,"viability, T/C",[33],19.7%
same,"viability, T/C",[34],15.3%
same,"viability, T/C",[35],15.8%
